Data on four compounds can be found in patent US20020188122A1, “Novel compounds” (SmithKline Beecham Corporation, priority 1993, published 2002).

The subject of series [1] is human PGHS-2 protein expression. Briefly: Prostoglandin endoperoxide synthase-2 (PGHS-2) assay, protein expression in LPS stimulated human monocytes. It counts as cell-based. On the procedure:
The followiong assay describes a method for determining the inhibitory effects of compounds of Formula (I) on human PGHS-2 protein expression in LPS stimulated human monocytes
Human peripheal blood monocytes were isolated from buffy coats by centrifugation through Ficoll and Percoll gradients. Cells were seeded at 2×10^6/well in 24 well plates and allowed to adhere for 1 hour in RPMI supplemented with 1% human AB serum, 20 mM L-glutamine, Penicillin-Streptomycin and 10 mM HEPES. Compounds were added at various concentrations and incubated at 37° C. for 10 minutes. LPS was added at 50 ng/well (to induce enzyme expression) and incubated overnight at 37° C. The supernatant was removed and cells washed once in cold PBS. The cells were lysed in 100 μl of cold lysis buffer(50 mM Tris/HCl pH 7.5, 150 mM NaCl, 1% NP40, 0.5% sodium deoxycholate, 0.1% SDS, 300 ug/ml DNAse, 0.1% TRITON X-100, 1 mM PMSF, 1 mM leupeptin, 1 mM pepstatin). The lysate was centrifuged (10,000× g for 10 min. at 4° C.) to remove debris and the soluble fraction was subjected to SDS PAGE. analysis (12% gel). Protein separated on the gel were transferred onto nitrocellulose membrane by electrophoretic means for 2 hours at 60 volts. The membrane was pretreated for one hour in PBS/0.1% Tween 20 with 5% non-fat dry milk. […]

Usually melting point stands for the temperature, or range, at which the solid turns liquid. `Nc1nccc(-c2c(-c3ccc(F)cc3)ncn2C2CCSCC2)n1` [Example 91, 5-(2-Amino-4-pyrimidinyl)-4-(4-fluorophenyl)-1-(tetrahydro-4-thiopyranyl)imidazole] gave a melting point of 228 to 230 °C.

The compound `CNc1nccc(-c2c(-c3ccc(F)cc3)ncn2CCC#N)n1` [Example 93, 5-(2-Methylamino-4-pyrimidinyl)-4-(4-fluorophenyl)-1-(2-cyanoethyl)imidazole] displayed a melting point of 193 to 194 °C.

`C[C@@H]1C[C@H]2[C@@H]3CCC4=CC(=O)C=C[C@]4(C)[C@@]3(F)[C@@H](O)C[C@]2(C)[C@@]1(O)C(=O)CO` [Dexamethasone]: in series [1] (rank order potency similar to that for inhibiting cytokine production), the “inhibition of LPS induced PGHS-2 protein expression” value is given as “active”. `CC(Cc1ccc(O)c(O)c1)C(C)Cc1ccc(O)c(O)c1` (stereo not shown) [NDGA]: the “inhibition of LPS induced PGHS-2 protein expression” value in series [1] (up to 10 uM) was “inactive”.
